Consider `Cc1nonc1C(N)=O`, for which the logP came to 0.31. The same measure for `Cc1nonc1-c1ccccc1[N+](=O)[O-]`: 2.21; for `O=Cc1c(-c2ccccc2)no[n+]1[O-]`: 2.92. The same measure for `CCc1nonc1C`: 1.18. The same measure for `Cc1nsnc1C`: 1.28; for `CCS(=O)(=O)c1no[n+]([O-])c1C`: 0.65; for `[O-][n+]1onc2ccccc21`: 1.43. `[O-][n+]1onc(Cl)c1-c1ccccc1` came in with a logP of 2.82. Then `Cc1n[se]nc1C`, with 0.89.

Compound `c1ccc2n[se]nc2c1` showed a logP of 1.64. Compound `Nc1nonc1NC(=O)c1ccccc1` came in with a logP of 1.41. Then `CNC(=O)Nc1nonc1C`, with 0.3; and `[O-][n+]1onc(-c2ccccc2)c1CO`, with 1.77; and `O=[N+]([O-])c1nonc1-c1ccccc1`, with 2.63. `Cc1no[n+]([O-])c1-c1ccccc1` gave a logP of 2.16. For `Cc1nonc1C`, the logP turned out to be 0.71. Then `[O-][n+]1onc(-c2ccccc2)c1Cl`, with 2.7; and `Cc1c(S(=O)c2ccccc2)no[n+]1[O-]` (stereo not given), with 1.5; and `Cc1c(Cc2ccccc2)no[n+]1[O-]`, with 2.08. `COC(=O)c1c(C)no[n+]1[O-]` showed a logP of 0.69.

Compound `CC(=O)Nc1nonc1N` registered a logP of -0.23.

On to `COC(=O)c1no[n+]([O-])c1C`, for which the logP came out at 0.56. `Cc1no[n+]([O-])c1S(=O)c1ccccc1` (stereo not given) came in with a logP of 1.75. `Cc1nonc1S(=O)(=O)c1ccccc1` registered a logP of 2.36. With `CCCc1nonc1C`, the logP was 1.71. In turn, `Nc1no[n+]([O-])c1-c1ccccc1` returned a logP of 1.47. The same measure for `Cc1c(N)no[n+]1[O-]`: -0.17; for `Cc1no[n+]([O-])c1Cl`: 0.9. The same measure for `CC(=O)c1no[n+]([O-])c1C`: 0.8; for `CNC(=O)c1nonc1C`: 0.56. `c1ccc2nsnc2c1`: the logP turned out to be 1.98. The same measure for `Cc1c(Sc2ccccc2)no[n+]1[O-]`: 2.63; for `Cc1c(-c2ccccc2)no[n+]1[O-]`: 2.17. The same measure for `Cc1c(C=O)no[n+]1[O-]`: 1.02; for `Cc1nonc1[N+](=O)[O-]`: 0.97; for `Cc1nonc1-c1ccccc1`: 2.59. The same measure for `O=Cc1no[n+]([O-])c1-c1ccccc1`: 2.61; for `[O-][n+]1onc(Cc2ccccc2)c1Cc1ccccc1`: 3.65.

Compound `Nc1c(-c2ccccc2)no[n+]1[O-]` showed a logP of 1.42. The same measure for `Cc1no[n+]([O-])c1S(=O)(=O)c1ccccc1`: 2.26; for `Cc1no[n+]([O-])c1Cc1ccccc1`: 2.22. The same measure for `Cc1nonc1N`: 0.09; for `Nc1nonc1-c1ccccc1`: 1.81; for `[O-][n+]1onc(-c2ccccc2)c1-c1ccccc1`: 3.64. The same measure for `c1cnon1`: 0.16; for `Cc1no[n+]([O-])c1C=O`: 1.29; for `COC(=O)Nc1nonc1C`: 0.42.

`Cc1no[n+]([O-])c1N` registered a logP of -0.32.

`OCc1nonc1-c1ccccc1` returned a logP of 1.92. Then `CC(=O)Nc1nonc1C`, with 0.17; and `Cc1no[n+]([O-])c1Sc1ccccc1`, with 2.74. The same measure for `[O-][n+]1onc(CO)c1-c1ccccc1`: 1.64; for `COC(=O)c1nonc1C`: 0.94; for `Clc1nonc1-c1ccccc1`: 3.2.

Turning to `Cc1nonc1S(=O)c1ccccc1` (stereo not given), the logP was found to be 1.76. On to `Cc1no[n+]([O-])c1C(N)=O`, for which the logP was determined as 0.36. In the case of `Cc1c(S(=O)(=O)c2ccccc2)no[n+]1[O-]`, the logP came out at 2.03.

In the case of `c1ccc2nonc2c1`, the logP was found to be 1.69. The same measure for `Cc1nonc1Sc1ccccc1`: 2.92. In turn, `Cc1no[n+]([O-])c1C` registered a logP of 0.23.

In turn, `Nc1nonc1N` returned a logP of -0.49.

`Cc1c(Cl)no[n+]1[O-]` registered a logP of 1.02. The same measure for `c1ccc(-c2nonc2-c2ccccc2)cc1`: 3.83; for `CC(=O)c1c(C)no[n+]1[O-]`: 0.98.

Compound `Cc1c(C(N)=O)no[n+]1[O-]` returned a logP of 0.03.

A word on the logP: it is a log measure of how a compound divides between an organic and an aqueous phase. A higher logP goes with a more lipophilic compound.

The values are drawn from the OPERA property sets (Mansouri et al. 2018).
